This assay addresses T1, PfENT1 (Plasmodium falciparum, UniProt Q8IDM6).
T1 construct: expressed in transfected cells; host or cells: fui1Δ yeast (Saccharomyces cerevisiae), co-expressing GFP
Type of assay: cell-based. As to conditions: primary HTS, compounds at 10 μM, 125 μM 5-FUrd. How it is done: A yeast-based high throughput screening (HTS) assay was used to identify compounds that inhibit PfENT1. The compounds described in this application were identified by screening four commercially available, chemical compound libraries obtained from Dr. Donald Landry's laboratory (Department of Medicine, Columbia University). These libraries contain approximately 80,000 unique chemical entities.
In the primary screen the compounds were tested at a concentration of 10 μM. Hits were identified by the growth of fui1Δ yeast expressing PfENT1 and Green Fluorescent Protein (GFP) in the presence of the cytotoxic nucleoside 5-fluorouridine (5-FUrd). 5-FUrd is transported by PfENT1. PfENT1 expressing fui1Δ yeast will only grow in the presence of 125 μM 5-FUrd if a PfENT1 inhibitor blocks the uptake of 5-FUrd into the yeast. Significant yeast growth in the HTS in 384 well plates was determined by two criteria: 1) turbidity as determined by the optical density at 620 nm (OD620) and 2) GFP fluorescence intensity. […] Hits had to be positive by both criteria.

T1 sequence (Q8IDM6 whole entry): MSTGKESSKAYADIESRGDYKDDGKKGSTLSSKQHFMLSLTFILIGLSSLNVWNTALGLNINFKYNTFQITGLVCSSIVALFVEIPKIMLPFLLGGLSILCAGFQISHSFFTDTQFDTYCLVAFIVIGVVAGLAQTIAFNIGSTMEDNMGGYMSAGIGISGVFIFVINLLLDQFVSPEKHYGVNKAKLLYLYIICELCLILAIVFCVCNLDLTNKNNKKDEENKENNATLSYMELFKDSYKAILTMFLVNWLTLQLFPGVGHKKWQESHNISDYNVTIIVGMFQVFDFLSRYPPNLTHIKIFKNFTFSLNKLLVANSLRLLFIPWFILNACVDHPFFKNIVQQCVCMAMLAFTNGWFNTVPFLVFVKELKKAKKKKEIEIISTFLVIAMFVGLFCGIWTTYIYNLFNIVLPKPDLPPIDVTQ

With `O=C(COc1ccccc1Cl)Nc1ccc(C(=O)N2CCCCC2)cc1` [compound 8, 2-(2-chlorophenoxy)-N-[4-(1-piperidinylcarbonyl)phenyl]acetamide], the “Avg Normalized % maximal activity” value is 54.23%. Under `COc1cccc(C(=O)Nc2cccc(-c3nnc(-c4ccco4)o3)c2)c1` [compound 9, N-{3-[5-(2-furyl)-1,3,4-oxadiazol-2-yl]phenyl}-3-methoxybenzamide] stands 54.12%; under `Cc1nc(NC(=O)c2sc3ccccc3c2Cl)sc1C(=O)N(C)C` [compound 10, 2-{[(3-chloro-1-benzothien-2-yl)carbonyl]amino}-N,N,4-trimethyl-1,3-thiazole-5-carboxamide], 45.82%. Consider `O=C(Nc1cccc(-c2nc3ncccc3o2)c1)c1ccco1` [compound 11, N-(3-[1,3]oxazolo[4,5-b]pyridin-2-ylphenyl)-2-furamide], for which the “Avg Normalized % maximal activity” value is on record as 32.85%.

Turning to `Cc1cc(=O)oc2cc(OCc3nnc(-c4ccccc4)o3)ccc12` [compound 12, 4-methyl-7-[(5-phenyl-1,3,4-oxadiazol-2-yl)methoxy]-2H-chromen-2-one], the “Avg Normalized % maximal activity” value is recorded as 31.72%. For the molecule `Cc1ccnc(NC(=O)c2ccc(NC(=O)c3ccco3)cc2)c1` [compound 14, N-(4-{[(4-methyl-2-pyridinyl)amino]carbonyl}phenyl)-2-furamide], the “Avg Normalized % maximal activity” value was determined as 24.47%.

For `COc1ccc(-c2cnc3ccccc3n2)cc1NC(=O)c1ccncc1` [compound 15], the “Avg Normalized % maximal activity” value came out at 24.18%. `COc1ccc(C(=O)Nc2cccc(-c3nc4ncccc4o3)c2)cc1` [compound 16, 4-methoxy-N-(3-[1,3]oxazolo [4,5-b]pyridin-2-ylphenyl)benzamide]: the “Avg Normalized % maximal activity” value was 23.87%. The figure for `CCN(CC)C(=O)COc1ccc2c(c1)oc(=O)c1cc(OC)ccc12` [compound 17, N,N-diethyl-2-[(8-methoxy-6-oxo-6H-benzo [c]chromen-3-yl)oxy]acetamide] is 22.15%. As to `O=c1[nH]c(/C=C/c2ccccc2Cl)nc2ccccc12` [compound 18, 2-[2-(2-chlorophenyl)vinyl]-4(3H)-quinazolinone], the “Avg Normalized % maximal activity” value is reported as 21.82%. The figure for `O=C(Nc1cccc(-c2cn3ccsc3n2)c1)c1ccccc1F` [compound 20, 2-fluoro-N-(3-imidazo[2,1-b][1,3]thiazol-6-ylphenyl)benzamide] is 19.78%; for `CC1CCc2sc3ncnc(N4CCN(C(=O)c5ccco5)CC4)c3c2C1` (stereo not shown) [compound 21, 4-[4-(2-furoyl)-1-piperazinyl]-6-methyl-5,6,7,8-tetrahydro[1] benzothieno[2,3-d]pyrimidine] it is 17.70%; for `Cc1nc(NC(=O)c2oc3ccccc3c2C)sc1C(=O)N(C)C` [compound 22, N,N,4-trimethyl-2-{[(3-methyl-1-benzofuran-2-yl)carbonyl]amino}-1,3-thiazole-5-carboxamide] it is 17.36%. In the case of `Fc1ccc(C2CC(c3ccco3)n3ncnc3N2)cc1` (stereo not shown) [compound 23, 5-(4-fluorophenyl)-7-(2-furyl)-4,5,6,7-tetrahydro[1,2,4] triazolo[1,5-a]pyrimidine], the “Avg Normalized % maximal activity” value turned out to be 16.77%. Under `O=C(Nc1nc2c(s1)C(=O)CCC2)c1ccccc1Cl` [compound 24, 2-chloro-N-(7-oxo-4,5,6,7-tetrahydro-1,3-benzothiazol-2-yl)benzamide] stands 16.16%; under `CCOc1ccc(-c2noc(CCCC(=O)N3CCCCC3)n2)cc1OC` [compound 25, 1-{4-[3-(4-ethoxy-3-methoxyphenyl)-1,2,4-oxadiazol-5-yl]butanoyl} piperidine], 15.69%; under `O=C(Nc1ccc(-c2nnc(-c3ccco3)o2)cc1)C1CCCO1` (stereo not shown) [compound 26, N-{4-[5-(2-furyl)-1,3,4-oxadiazol-2-yl]phenyl}tetrahydro-2-furancarboxamide], 15.22%. Under `COc1ccc(-c2nc3ccccc3o2)cc1NC(=O)c1cccnc1` [compound 27, N-[5-(1,3-benzoxazol-2-yl)-2-methoxyphenyl] nicotinamide] stands 14.03%; under `Cc1ccccc1C(=O)Nc1ccc2c(C)cc(=O)oc2c1` [compound 28], 13.98%; under `COc1ccc(-c2nnc(OC)c3ccccc23)cc1` [compound 29, 1-methoxy-4-(4-methoxyphenyl) phthalazine], 13.58%.

As to `O=C(Nc1ccc(-c2nnc(-c3ccccc3)o2)cc1)c1ccco1` [compound 30, N-[4-(5-phenyl-1,3,4-oxadiazol-2-yl)phenyl]-2-furamide], the “Avg Normalized % maximal activity” value is reported as 13.43%. For `CCOc1ccccc1NC(=O)c1cccc(NC(=O)c2ccco2)c1` [compound 31, N-(3-{[(2-ethoxyphenyl)amino]carbonyl}phenyl)-2-furamide], the “Avg Normalized % maximal activity” value is reported as 13.00%. With `COc1ccc(Cl)cc1Nc1nnc(-c2cnccn2)s1` [compound 32, N-(5-chloro-2-methoxyphenyl)-5-(2-pyrazinyl)-1,3,4-thiadiazol-2-amine], the “Avg Normalized % maximal activity” value worked out at 12.03%. With `COC(=O)c1ccccc1NC(=O)c1cccc(NC(=O)c2ccco2)c1C` [compound 33, methyl 2-{[3-(2-furoylamino)-2-methylbenzoyl]amino}benzoate], the “Avg Normalized % maximal activity” value is recorded as 11.98%. The figure for `Cc1c(/C=C/c2nc3ccccc3c(=O)[nH]2)c2ccccc2n1C` [compound 34, 2-[2-(1,2-dimethyl-1H-indol-3-yl)vinyl]-4(3H)-quinazolinone] is 11.27%. On to `COc1cccc(C(=O)Nc2ccc(-c3nnc(-c4ccco4)o3)cc2)c1` [compound 35, N-{4-[5-(2-furyl)-1,3,4-oxadiazol-2-yl]phenyl}-3-methoxybenzamide], for which the “Avg Normalized % maximal activity” value turned out to be 11.40%. As for `CCc1cccc(C)c1NS(=O)(=O)c1cccs1` [compound 36, N-(2-ethyl-6-methylphenyl)-2-thiophenesulfonamide], the “Avg Normalized % maximal activity” value came to 11.14%. The figure for `COc1ccc(C(=O)Nc2ccc(-c3nc4ncccc4o3)cc2C)cc1OC` [compound 37, 3,4-dimethoxy-N-(2-methyl-4-[1,3]oxazolo [4,5-b]pyridin-2-ylphenyl)benzamide] is 10.61%. For the molecule `C[C@@H]1C[C@@H](O[C@H]2[C@H](O[C@H]3CC[C@@]4(C)C(CC[C@]5(C)[C@@H]4CC=C4C6CC(C)(C)CC[C@]6(C(=O)O[C@@H]6O[C@H](CO[C@@H]7O[C@H](CO)[C@@H](O[C@@H]8O[C@@H](C)[C@H](O)[C@@H](O)[C@H]8O)[C@H](O)[C@H]7O)[C@@H](O)[C@H](O)[C@H]6O)CC[C@]45C)[C@]3(C)CO)OC[C@H](O)[C@@H]2O)[C@H](O)[C@H](O)[C@H]1O` (stereo partly shown) [compound 38], the “Avg Normalized % maximal activity” value worked out at 10.61%. Under `Cc1ccc2oc(-c3ccc(NC(=O)C4CCCO4)cc3)nc2c1` (stereo not shown) [compound 39, N-[4-(5-methyl-1,3-benzoxazol-2-yl)phenyl]tetrahydro-2-furancarboxamide] stands 10.52%; under `CCOC(=O)c1cc(NC(=O)c2ccccc2F)ccc1N1CCOCC1` [compound 40, ethyl 5-[(2-fluorobenzoyl)amino]-2-(4-morpholinyl)benzoate], 10.29%.

Consider `Cc1cc(-c2nc3ncccc3o2)ccc1NC(=O)c1ccco1` [compound 41, N-(2-methyl-4-[1,3]oxazolo[4,5-b]pyridin-2-ylphenyl)-2-furamide], for which the “Avg Normalized % maximal activity” value was 10.28%. Under `O=C(Nc1ccc(-c2nnc(-c3ccccc3)o2)cc1)C1CCCO1` (stereo not shown) [compound 42, N-[4-(5-phenyl-1,3,4-oxadiazol-2-yl)phenyl]tetrahydro-2-furancarboxamide] stands 10.16%. With `O=C(NC(=O)c1ccccc1)Nc1cc(N2CCOCC2)ncn1` [compound 43, N-({[6-(4-morpholinyl)-4-pyrimidinyl]amino}carbonyl) benzamide], the “Avg Normalized % maximal activity” value stood at 9.52%. Under `Cc1cccc(C(=O)Nc2ccc(-c3nnc(-c4ccco4)o3)cc2)c1` [compound 44, N-{4-[5-(2-furyl)-1,3,4-oxadiazol-2-yl]phenyl}-3-methylbenzamide] stands 9.07%.

Regarding `O=C(CSc1nnc(-c2ccc(Cl)cc2Cl)o1)N1CCCCC1` [compound 45, 1-({[5-(2,4-dichlorophenyl)-1,3,4-oxadiazol-2-yl]thio}acetyl)piperidine], the “Avg Normalized % maximal activity” value is 8.97%. Consider `Cc1nnc(SCc2csc(-c3ccc4c(c3)OCO4)n2)s1` [compound 46, 2-({[2-(1,3-benzodioxol-5-yl)-1,3-thiazol-4-yl]methyl}thio)-5-methyl-1,3,4-thiadiazole], for which the “Avg Normalized % maximal activity” value stood at 8.94%. On to `CCOCc1nnc(NC(=O)c2ccc(OC)cc2)s1` [compound 47], for which the “Avg Normalized % maximal activity” value came to 8.66%. The figure for `CCc1ccc(C(C)NC(=O)c2nc[nH]n2)cc1` (stereo not shown) [compound 48, N-[1-(4-ethylphenyl)ethyl]-1H-1,2,4-triazole-3-carboxamide] is 8.44%. On to `O=C(Nc1ccc(-c2nc3ccccc3o2)cc1)C1CCCO1` (stereo not shown) [compound 49, N-[4-(1,3-benzoxazol-2-yl)phenyl]tetrahydro-2-furancarboxamide], for which the “Avg Normalized % maximal activity” value is listed as 8.36%.

Source of the values: patent US9695193B2, “Inhibitors of Plasmodium falciparum equilibrative nucleoside transporter type I as anti-parasitic compounds” (The Trustees of Columbia University in the City of New York, priority 2013, dated 2017).
